{
  "source": "ChEMBL document CHEMBL4043292",
  "about": "“Discovery and Optimization of Phosphopantetheine Adenylyltransferase Inhibitors with Gram-Negative Antibacterial Activity” (J Med Chem, 2018)",
  "key": {"[1]": {"target": "T1, Bifunctional coenzyme A synthase (Homo sapiens) (UniProt Q13057)", "T1 sequence (whole entry)": "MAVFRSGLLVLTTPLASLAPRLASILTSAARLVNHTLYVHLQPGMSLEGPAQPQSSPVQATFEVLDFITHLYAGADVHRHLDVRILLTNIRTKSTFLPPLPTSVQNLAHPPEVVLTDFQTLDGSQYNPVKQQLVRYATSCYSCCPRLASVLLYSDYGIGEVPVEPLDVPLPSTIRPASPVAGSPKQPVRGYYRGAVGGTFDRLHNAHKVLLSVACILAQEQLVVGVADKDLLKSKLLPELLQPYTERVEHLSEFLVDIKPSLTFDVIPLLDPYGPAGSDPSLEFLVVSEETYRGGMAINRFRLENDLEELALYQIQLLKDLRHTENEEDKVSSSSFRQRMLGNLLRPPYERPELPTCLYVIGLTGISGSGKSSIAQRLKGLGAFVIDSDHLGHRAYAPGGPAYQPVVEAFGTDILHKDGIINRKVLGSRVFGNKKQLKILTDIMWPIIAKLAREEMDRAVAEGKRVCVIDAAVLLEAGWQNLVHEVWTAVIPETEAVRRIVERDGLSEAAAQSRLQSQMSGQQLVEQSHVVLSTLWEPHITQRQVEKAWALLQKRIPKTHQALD", "description": "Inhibition of human coaSY expressed in tolC deficient Escherichia coli JWK0002 assessed as bacterial growth inhibition after 20 hrs by broth microdilution method"}, "Escherichia coli [2]": {"test_system": "Escherichia coli", "assay": "microbe, parasite or virus in culture", "conditions": "RFM795, 20 h", "description": "Antibacterial activity Escherichia coli RFM795 harboring frame deletion of 23 amino acids in lptD gene after 20 hrs by broth microdilution method"}, "in vitro [3]": {"assay": "in vitro", "conditions": "human, Caco-2", "description": "Efflux ratio of apparent permeability across basolateral to apical over apical to basolateral side in human Caco2 cells"}, "in vitro [4]": {"assay": "in vitro", "conditions": "human, Caco-2", "remark": "listed apart in the source"}, "physchem [5]": {"assay": "physchem", "conditions": "PBS", "description": "Solubility of the compound in PBS"}, "in vitro [6]": {"assay": "in vitro", "conditions": "human, not told", "description": "Efflux ratio in human microsomes"}, "Escherichia coli [7]": {"test_system": "Escherichia coli", "assay": "microbe, parasite or virus in culture", "conditions": "JW5503-1, 20 h", "description": "Antibacterial activity against tolC deficient Escherichia coli JW5503-1 after 20 hrs by broth microdilution method"}, "Pseudomonas aeruginosa [8]": {"test_system": "Pseudomonas aeruginosa", "assay": "microbe, parasite or virus in culture", "conditions": "PAO1, 20 h", "description": "Antibacterial activity against Pseudomonas aeruginosa PAO1 after 20 hrs by broth microdilution method"}, "Pseudomonas aeruginosa [9]": {"test_system": "Pseudomonas aeruginosa", "assay": "microbe, parasite or virus in culture", "conditions": "K1119, 20 h", "description": "Antibacterial activity against mexAB deficient Pseudomonas aeruginosa K1119 after 20 hrs by broth microdilution method"}, "Escherichia coli [10]": {"test_system": "Escherichia coli", "assay": "microbe, parasite or virus in culture", "conditions": "JW0451-2, 20 h", "description": "Antibacterial activity against acrB deficient Escherichia coli JW0451-2 after 20 hrs by broth microdilution method"}, "Escherichia coli [11]": {"test_system": "Escherichia coli", "assay": "microbe, parasite or virus in culture", "conditions": "BW25113, 20 h", "description": "Antibacterial activity against Escherichia coli BW25113 after 20 hrs by broth microdilution method"}, "physchem [12]": {"assay": "physchem", "conditions": "buffer, pH 7.4", "description": "Lipophilicity, log D of the compound at pH 7.4"}, "Escherichia coli [13]": {"test_system": "Escherichia coli", "assay": "Ratio of IC50 for PPAT in Escherichia coli BW25113 assessed as reduction in level of CoA-SH metabolite to IC50 for PPAT in tolC deficient Escherichia coli JW5503-1 assessed as reduction in level of CoA-SH metabolite"}, "Pseudomonas aeruginosa [14]": {"test_system": "Pseudomonas aeruginosa", "assay": "microbe, parasite or virus in culture", "conditions": "ATCC 35151, 20 h", "description": "Antibacterial activity against Pseudomonas aeruginosa ATCC 35151 after 20 hrs by broth microdilution method"}, "[15]": {"assay": "Inhibition of PPAT in tolC deficient Escherichia coli JW5503-1 assessed as reduction in level of CoA-SH metabolite by mass spectrometric method"}, "[16]": {"assay": "Inhibition of PPAT in Escherichia coli BW25113 assessed as reduction in level of CoA-SH metabolite by mass spectrometric method"}},
  "data": [
    {"smiles": "COC(=O)N1CCC(Cc2cccc([C@@H](CC#N)Nc3nc4nc(C)ccc4[nH]3)c2)CC1", "values": [
      {"measurement": "MIC", "setting": "[1]", "result": 128, "unit": "µg/mL"},
      {"measurement": "MIC", "setting": "Escherichia coli [2]", "result": 2, "unit": "µg/mL"},
      {"measurement": "efflux ratio", "setting": "in vitro [3]", "result": 18},
      {"measurement": "Papp A→B", "setting": "in vitro [4]", "result": 2.3, "unit": "×10⁻⁶ cm/s"},
      {"measurement": "solubility", "setting": "physchem [5]", "result": 158, "unit": "µg/mL"},
      {"measurement": "efflux ratio", "setting": "in vitro [6]", "result": 0.77},
      {"measurement": "MIC", "setting": "Escherichia coli [7]", "result": "≤ 0.125", "unit": "µg/mL"},
      {"measurement": "MIC", "setting": "Pseudomonas aeruginosa [8]", "result": "> 128", "unit": "µg/mL"},
      {"measurement": "MIC", "setting": "Pseudomonas aeruginosa [9]", "result": 32, "unit": "µg/mL"},
      {"measurement": "MIC", "setting": "Escherichia coli [10]", "result": 16, "unit": "µg/mL"},
      {"measurement": "MIC", "setting": "Escherichia coli [11]", "result": 128, "unit": "µg/mL"},
      {"measurement": "logD", "setting": "physchem [12]", "result": 2.8}
    ]},
    {"smiles": "COC(=O)N1CCC(Oc2cccc([C@@H](CC#N)Nc3nc4nc(C)ccc4[nH]3)c2)CC1", "values": [
      {"measurement": "MIC", "setting": "[1]", "result": "> 128", "unit": "µg/mL"},
      {"measurement": "Ratio IC50", "setting": "Escherichia coli [13]", "result": 500},
      {"measurement": "MIC", "setting": "Escherichia coli [2]", "result": 8, "unit": "µg/mL"},
      {"measurement": "MIC", "setting": "Pseudomonas aeruginosa [14]", "result": 128, "unit": "µg/mL"},
      {"measurement": "efflux ratio", "setting": "in vitro [3]", "result": 48},
      {"measurement": "Papp A→B", "setting": "in vitro [4]", "result": 1, "unit": "×10⁻⁶ cm/s"},
      {"measurement": "solubility", "setting": "physchem [5]", "result": 264, "unit": "µg/mL"},
      {"measurement": "efflux ratio", "setting": "in vitro [6]", "result": 0.44},
      {"measurement": "MIC", "setting": "Escherichia coli [7]", "result": 0.25, "unit": "µg/mL"},
      {"measurement": "MIC", "setting": "Pseudomonas aeruginosa [8]", "result": "> 128", "unit": "µg/mL"},
      {"measurement": "MIC", "setting": "Pseudomonas aeruginosa [9]", "result": 128, "unit": "µg/mL"},
      {"measurement": "MIC", "setting": "Escherichia coli [10]", "result": 32, "unit": "µg/mL"},
      {"measurement": "IC50", "setting": "[15]", "result": 0.024, "unit": "µM"},
      {"measurement": "MIC", "setting": "Escherichia coli [11]", "result": "> 128", "unit": "µg/mL"},
      {"measurement": "IC50", "setting": "[16]", "result": 11.9, "unit": "µM"},
      {"measurement": "logD", "setting": "physchem [12]", "result": 3}
    ]}
  ]
}
